In ChEMBL document CHEMBL5724696, “Autophagy assay results for EUbOPEN Chemogenomics Library” (2024):

Columns and labels:
U2OS [1] = test: (§1) Here: values are normalized to the negative (DMSO; defined as 0% autophagy induction) and positive (250nM Torin1; mTOR inhibitor; defined as maximal inducer of autophagy = 100%) control compounds and represented as % of autophagy induction. […] The impact of autophagy induction on cells is complex and depends on the affected target. As such, the magnitude of a phenotype may not be equally mirrored in the %-value of autophagy induction and vice versa. The dynamics of the induction may indicate the mode of activation: e.g. activation via phosphorylation or a signaling cascade may occur fast, while activation via transcription factors may take considerably longer. […] Of note, treatment concentrations may be sub-optimal for specific compounds, leading to false negative annotations.; type: functional, Homo sapiens; conditions: Culturing Media DMEM, 1 % Penicillin/Streptomycin, 10% Fetal bovin serum Add-On: No, Screening Media Control DMEM, Screening Media Samples DMEM
U2OS [2] = test: as §1; type: functional, Homo sapiens; conditions: Culturing Media DMEM, 1 % Penicillin/Streptomycin, 10% Fetal bovin serum Add-On: No, Screening Media Control DMEM, Screening Media Samples DMEM; remark: listed apart in the source
[3] = Compound Concentration 0.5 uM, Timepoint 12 hours
[4] = Compound Concentration 0.5 uM, Timepoint 24 hours
[5] = Compound Concentration 0.5 uM, Timepoint 36 hours
[6] = Compound Concentration 0.5 uM, Timepoint 60 hours
[7] = Compound Concentration 2 uM, Timepoint 12 hours
[8] = Compound Concentration 2 uM, Timepoint 24 hours
[9] = Compound Concentration 2 uM, Timepoint 36 hours
[10] = Compound Concentration 2 uM, Timepoint 60 hours
[11] = Compound Concentration 10 uM, Timepoint 12 hours
[12] = Compound Concentration 10 uM, Timepoint 24 hours
[13] = Compound Concentration 10 uM, Timepoint 36 hours
[14] = Compound Concentration 10 uM, Timepoint 60 hours

Row | Compound | autophagy induction (U2OS [1]; [3]) | autophagy induction (U2OS [1]; [4]) | autophagy induction (U2OS [1]; [5]) | autophagy induction (U2OS [1]; [6]) | autophagy induction (U2OS [1]; [7]) | autophagy induction (U2OS [1]; [8]) | autophagy induction (U2OS [1]; [9]) | autophagy induction (U2OS [1]; [10]) | autophagy induction (U2OS [1]; [11]) | autophagy induction (U2OS [1]; [12]) | autophagy induction (U2OS [1]; [13]) | autophagy induction (U2OS [1]; [14]) | autophagy induction (U2OS [2]; [3]) | autophagy induction (U2OS [2]; [4]) | autophagy induction (U2OS [2]; [5]) | autophagy induction (U2OS [2]; [6]) | autophagy induction (U2OS [2]; [7]) | autophagy induction (U2OS [2]; [8]) | autophagy induction (U2OS [2]; [9]) | autophagy induction (U2OS [2]; [10]) | further results
1 | Cc1csc2c(N[C@@H](C)CN3CCN(S(=O)(=O)c4ccc(Cl)c(Cl)c4)CC3)ncnc12 | 6.768% | 8.8628% | 13.6009% | 4.711% | 2.53% | 6.7674% | 12.0314% | 11.989% | 12.5309% | 16.4077% | 26.9308% | 28.2658% | -0.007707% | -1.5% | -0.4844% | -654.702% | 4.101% | 0.5386% | -0.3647% | 114.139% | autophagy induction (U2OS [2]; [11]): -10.3141%; autophagy induction (U2OS [2]; [12]): -6.4207%; autophagy induction (U2OS [2]; [13]): -4.537%; autophagy induction (U2OS [2]; [14]): 114.595%
2 | Cc1cc([C@@H](C)Nc2cccc(-c3cc(C)c(C(=O)N[C@@H](C)C(=O)O)c(C)c3)c2)ccc1Cl | -5.116% | -3.567% | -5.902% | -1.838% | -9.884% | -6.925% | -1.645% | 5.389% | 8.557% | 0.1878% | -1.416% | -9.482% | -1.358% | -0.4353% | -1.357% | 114.287% | 0.7384% | 3.004% | -0.1787% | 114.309% | autophagy induction (U2OS [2]; [11]): 25.7636%; autophagy induction (U2OS [2]; [12]): 8.275%; autophagy induction (U2OS [2]; [13]): 1.804%; autophagy induction (U2OS [2]; [14]): 114.446%
3 | COc1ccc(Br)cc1S(=O)(=O)NC(=O)/C=C/c1ccccc1Cc1ccc2ccccc2c1 | 10.8816% | 4.975% | 5.043% | 1.1971% | -3.861% | -4.459% | -4.477% | -3.627% | 11.1214% | -0.228% | 3.111% | -1.844% | 8.106% | 0.9964% | -0.06695% | 114.397% | -1.7757% | -1.309% | -1.876% | 114.114% | autophagy induction (U2OS [2]; [11]): -6.0177%; autophagy induction (U2OS [2]; [12]): -3.111%; autophagy induction (U2OS [2]; [13]): -1.417%; autophagy induction (U2OS [2]; [14]): 114.143%
4 | COc1ccc(/C=C/CCCCOc2ccc(C(=O)c3cccc(C(=O)O)c3)cc2CCC(=O)O)cc1 | 4.029% | -1.055% | -5.293% | -4.291% | -4.414% | -2.822% | -3.285% | 2.49% | -13.0779% | -9.945% | -0.5172% | -0.9267% | -1.627% | -2.76% | -1.525% | 114.261% | 2.991% | -2.166% | -0.5097% | 114.413% | autophagy induction (U2OS [2]; [11]): 6.765%; autophagy induction (U2OS [2]; [12]): 1.033%; autophagy induction (U2OS [2]; [13]): 1.832%; autophagy induction (U2OS [2]; [14]): 114.224%
5 | Cc1nc(C#Cc2ccnc(Cl)c2)c(C)n1-c1ccc(OC(F)(F)F)cc1 | 6.456% | 5.383% | 5.336% | 1.571% | -2.91% | 2.407% | -0.6644% | -12.3758% | 2.059% | 11.3882% | 11.4393% | 13.7118% | 6.745% | 0.06808% | -1.509% | 114.498% | 7.139% | -0.173% | -1.142% | 114.204% | autophagy induction (U2OS [2]; [11]): 1.1344%; autophagy induction (U2OS [2]; [12]): 2.694%; autophagy induction (U2OS [2]; [13]): 0.08816%; autophagy induction (U2OS [2]; [14]): 114.429%
6 | CCc1ccc(OCc2ccccc2C(=O)Nc2ccc3nc(C)cc(N)c3c2)cc1.Cl | 21.0143% | 14.8244% | 13.2935% | 10.1945% | 66.4638% | 63.0279% | 63.192% | 56.3816% | 203.914% | 166.946% | 154.332% | 150.102% | 12.0081% | 1.625% | -0.1664% | 114.695% | -46.9081% | -13.0517% | 3.022% | 113.026% | autophagy induction (U2OS [2]; [11]): 98.6173%; autophagy induction (U2OS [2]; [12]): 63.101%; autophagy induction (U2OS [2]; [13]): 54.8449%; autophagy induction (U2OS [2]; [14]): 109.07%
7 | O=C(O)COc1cccc(CN(Cc2ccc(-n3cccn3)cc2)S(=O)(=O)c2cccnc2)c1 | 5.874% | 2.74% | 1.495% | -1.697% | -11.5162% | -13.8805% | -8.014% | -12.1859% | -5.999% | -5.085% | -8.443% | 1.395% | 1.733% | -2.792% | -2.001% | 114.184% | 12.9626% | 0.7228% | 0.396% | 114.202% | autophagy induction (U2OS [2]; [11]): 2.661%; autophagy induction (U2OS [2]; [12]): -2.358%; autophagy induction (U2OS [2]; [13]): 0.08453%; autophagy induction (U2OS [2]; [14]): 114.175%
8 | CCCCN(CC)c1nc(C)nc2c1c(C)cn2-c1c(C)cc(C)cc1C.Cl | 18.6925% | 15.758% | 10.5217% | 0.4484% | 10.9121% | 4.341% | 5.091% | -0.08598% | 2.112% | -2.1052% | 3.327% | 1.7732% | 2.677% | -1.508% | -1.584% | 114.355% | 3.96% | -1.673% | -1.59% | 114.358% | autophagy induction (U2OS [2]; [11]): -1.788%; autophagy induction (U2OS [2]; [12]): -2.669%; autophagy induction (U2OS [2]; [13]): -2.565%; autophagy induction (U2OS [2]; [14]): 114.561%
